Patent US10604524B2, “Pyrropyrimidine compounds as MNKs inhibitors” (LIFEARC, priority 2015, dated 2020)

Legend:
[1] = target: MAPK8 (Homo sapiens, UniProt P45983); assay: Kinase selectivity screen; conditions: read-out: % Inhibition MAPK8
[2] = target: MARK1 (Homo sapiens, UniProt Q9P0L2); assay: Kinase selectivity screen; conditions: read-out: % Inhibition MARK1
[3] = target: RPS6KA5 (Homo sapiens, UniProt O75582); assay: Kinase selectivity screen; conditions: read-out: % Inhibition RPS6KA5
[4] = target: PAK4 (Homo sapiens, UniProt O96013); assay: Kinase selectivity screen; conditions: read-out: % Inhibition PAK4
[5] = target: CSF1R (Homo sapiens, UniProt P07333); assay: Kinase selectivity screen; conditions: read-out: % Inhibition CSF1R
[6] = target: FGFR2 (Homo sapiens, UniProt P21802); assay: Kinase selectivity screen; conditions: read-out: % Inhibition FGFR2
[7] = target: KIT (Homo sapiens, UniProt P10721); assay: Kinase selectivity screen; conditions: read-out: % Inhibition KIT
[8] = target: CDK2/CCNA2 (Homo sapiens, UniProt P24941); assay: Kinase selectivity screen; conditions: read-out: % Inhibition CDK2/CCNA2
[9] = target: ABL1 (Homo sapiens, UniProt P00519); assay: Kinase selectivity screen; conditions: read-out: % Inhibition ABL1
[10] = target: Full-length human MNK1 (Homo sapiens, UniProt Q9BUB5, T385D); assay: MNK1 biochemical IC50 assay (Caliper mobility shift)
[11] = target: MARK2 (Homo sapiens, UniProt Q7KZI7); assay: Kinase selectivity screen; conditions: read-out: % Inhibition MARK2
[12] = target: INSRR (Homo sapiens, UniProt P14616); assay: Kinase selectivity screen; conditions: read-out: % Inhibition INSRR
[13] = target: PDGFRB (Homo sapiens, UniProt P09619); assay: Kinase selectivity screen; conditions: read-out: % Inhibition PDGFRB
[14] = target: DDR2 (Homo sapiens, UniProt Q16832); assay: Kinase selectivity screen; conditions: read-out: % Inhibition DDR2
[15] = target: GSK3B (Homo sapiens, UniProt P49841); assay: Kinase selectivity screen; conditions: read-out: % Inhibition GSK3B
Sequence of GSK3B (P49841 whole entry, species assumed): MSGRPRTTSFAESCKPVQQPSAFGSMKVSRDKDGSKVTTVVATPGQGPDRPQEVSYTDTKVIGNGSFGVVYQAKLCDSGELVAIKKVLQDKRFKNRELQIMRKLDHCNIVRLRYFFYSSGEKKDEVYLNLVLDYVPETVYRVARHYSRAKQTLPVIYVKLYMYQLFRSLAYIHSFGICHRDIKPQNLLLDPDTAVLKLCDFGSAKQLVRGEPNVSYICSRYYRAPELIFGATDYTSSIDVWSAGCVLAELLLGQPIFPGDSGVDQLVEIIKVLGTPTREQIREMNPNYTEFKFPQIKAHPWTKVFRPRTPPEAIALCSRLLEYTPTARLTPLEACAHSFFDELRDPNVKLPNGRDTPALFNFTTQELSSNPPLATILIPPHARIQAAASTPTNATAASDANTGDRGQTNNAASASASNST

[16] = target: ALK (Homo sapiens, UniProt Q9UM73); assay: Kinase selectivity screen; conditions: read-out: % Inhibition ALK
[17] = target: AKT1 (Homo sapiens, UniProt P31749); assay: Kinase selectivity screen; conditions: read-out: % Inhibition AKT1
[18] = target: STK10 (Homo sapiens, UniProt O94804); assay: Kinase selectivity screen; conditions: read-out: % Inhibition STK10
Sequence of STK10 (O94804 whole entry, species assumed): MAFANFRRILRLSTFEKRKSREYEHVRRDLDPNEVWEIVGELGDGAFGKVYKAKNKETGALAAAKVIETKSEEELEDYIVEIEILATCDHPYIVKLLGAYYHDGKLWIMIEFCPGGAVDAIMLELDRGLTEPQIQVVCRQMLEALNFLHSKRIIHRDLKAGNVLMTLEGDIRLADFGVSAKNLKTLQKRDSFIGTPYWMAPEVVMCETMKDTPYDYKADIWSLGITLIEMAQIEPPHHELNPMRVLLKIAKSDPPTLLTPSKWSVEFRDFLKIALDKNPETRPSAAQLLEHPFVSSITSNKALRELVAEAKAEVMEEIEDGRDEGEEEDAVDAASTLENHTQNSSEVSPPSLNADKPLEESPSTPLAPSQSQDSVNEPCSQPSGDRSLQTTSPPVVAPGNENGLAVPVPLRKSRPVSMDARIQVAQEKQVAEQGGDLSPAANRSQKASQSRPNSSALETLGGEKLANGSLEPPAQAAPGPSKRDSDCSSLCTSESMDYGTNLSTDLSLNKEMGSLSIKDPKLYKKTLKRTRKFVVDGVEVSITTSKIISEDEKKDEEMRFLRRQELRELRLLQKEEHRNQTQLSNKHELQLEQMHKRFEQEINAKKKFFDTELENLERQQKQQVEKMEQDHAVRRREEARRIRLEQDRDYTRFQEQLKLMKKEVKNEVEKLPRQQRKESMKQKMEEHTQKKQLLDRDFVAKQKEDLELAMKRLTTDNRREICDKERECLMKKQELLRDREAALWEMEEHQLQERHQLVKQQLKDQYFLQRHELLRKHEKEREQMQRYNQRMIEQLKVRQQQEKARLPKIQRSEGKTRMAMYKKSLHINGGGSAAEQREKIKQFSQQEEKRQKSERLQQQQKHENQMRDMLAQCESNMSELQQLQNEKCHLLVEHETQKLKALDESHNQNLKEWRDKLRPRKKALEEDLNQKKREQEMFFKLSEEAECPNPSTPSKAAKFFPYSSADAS

[19] = target: LCK (Homo sapiens, UniProt P06239); assay: Kinase selectivity screen; conditions: read-out: % Inhibition LCK
[20] = target: FER (Homo sapiens, UniProt P16591); assay: Kinase selectivity screen; conditions: read-out: % Inhibition FER
[21] = target: SRPK1 (Homo sapiens, UniProt Q96SB4); assay: Kinase selectivity screen; conditions: read-out: % Inhibition SRPK1
[22] = target: PRKCQ (Homo sapiens, UniProt Q04759); assay: Kinase selectivity screen; conditions: read-out: % Inhibition PRKCQ
[23] = target: FLT1 (Homo sapiens, UniProt P17948); assay: Kinase selectivity screen; conditions: read-out: % Inhibition FLT1
[24] = target: BTK (Homo sapiens, UniProt Q06187); assay: Kinase selectivity screen; conditions: read-out: % Inhibition BTK
Sequence of BTK (Q06187 whole entry, species assumed): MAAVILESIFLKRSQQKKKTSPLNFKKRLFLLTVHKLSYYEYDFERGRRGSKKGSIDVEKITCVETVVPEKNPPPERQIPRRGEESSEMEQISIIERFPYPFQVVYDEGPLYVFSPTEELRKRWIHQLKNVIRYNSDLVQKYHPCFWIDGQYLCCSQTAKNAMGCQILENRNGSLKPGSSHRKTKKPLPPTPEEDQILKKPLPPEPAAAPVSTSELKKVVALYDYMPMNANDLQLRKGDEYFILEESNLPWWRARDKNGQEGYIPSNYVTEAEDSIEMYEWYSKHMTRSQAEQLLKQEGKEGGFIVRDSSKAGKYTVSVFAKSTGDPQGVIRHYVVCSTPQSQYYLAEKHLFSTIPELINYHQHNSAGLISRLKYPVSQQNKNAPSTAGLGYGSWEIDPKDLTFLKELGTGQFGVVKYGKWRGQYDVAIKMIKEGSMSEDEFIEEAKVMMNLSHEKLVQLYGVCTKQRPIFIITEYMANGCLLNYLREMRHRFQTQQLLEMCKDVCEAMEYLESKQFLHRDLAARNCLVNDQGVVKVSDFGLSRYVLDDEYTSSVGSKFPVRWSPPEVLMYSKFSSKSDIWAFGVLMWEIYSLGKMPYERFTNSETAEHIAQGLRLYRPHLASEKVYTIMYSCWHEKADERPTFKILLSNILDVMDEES

[25] = target: PRKAA2 (Homo sapiens, UniProt P54646); assay: Kinase selectivity screen; conditions: read-out: % Inhibition PRKAA2
[26] = target: PRKG1 (Homo sapiens, UniProt Q13976); assay: Kinase selectivity screen; conditions: read-out: % Inhibition PRKG1
[27] = target: PAK2 (Homo sapiens, UniProt Q13177); assay: Kinase selectivity screen; conditions: read-out: % Inhibition PAK2
[28] = target: ROCK1 (Homo sapiens, UniProt Q13464); assay: Kinase selectivity screen; conditions: read-out: % Inhibition ROCK1
Sequence of ROCK1 (Q13464 whole entry, species assumed): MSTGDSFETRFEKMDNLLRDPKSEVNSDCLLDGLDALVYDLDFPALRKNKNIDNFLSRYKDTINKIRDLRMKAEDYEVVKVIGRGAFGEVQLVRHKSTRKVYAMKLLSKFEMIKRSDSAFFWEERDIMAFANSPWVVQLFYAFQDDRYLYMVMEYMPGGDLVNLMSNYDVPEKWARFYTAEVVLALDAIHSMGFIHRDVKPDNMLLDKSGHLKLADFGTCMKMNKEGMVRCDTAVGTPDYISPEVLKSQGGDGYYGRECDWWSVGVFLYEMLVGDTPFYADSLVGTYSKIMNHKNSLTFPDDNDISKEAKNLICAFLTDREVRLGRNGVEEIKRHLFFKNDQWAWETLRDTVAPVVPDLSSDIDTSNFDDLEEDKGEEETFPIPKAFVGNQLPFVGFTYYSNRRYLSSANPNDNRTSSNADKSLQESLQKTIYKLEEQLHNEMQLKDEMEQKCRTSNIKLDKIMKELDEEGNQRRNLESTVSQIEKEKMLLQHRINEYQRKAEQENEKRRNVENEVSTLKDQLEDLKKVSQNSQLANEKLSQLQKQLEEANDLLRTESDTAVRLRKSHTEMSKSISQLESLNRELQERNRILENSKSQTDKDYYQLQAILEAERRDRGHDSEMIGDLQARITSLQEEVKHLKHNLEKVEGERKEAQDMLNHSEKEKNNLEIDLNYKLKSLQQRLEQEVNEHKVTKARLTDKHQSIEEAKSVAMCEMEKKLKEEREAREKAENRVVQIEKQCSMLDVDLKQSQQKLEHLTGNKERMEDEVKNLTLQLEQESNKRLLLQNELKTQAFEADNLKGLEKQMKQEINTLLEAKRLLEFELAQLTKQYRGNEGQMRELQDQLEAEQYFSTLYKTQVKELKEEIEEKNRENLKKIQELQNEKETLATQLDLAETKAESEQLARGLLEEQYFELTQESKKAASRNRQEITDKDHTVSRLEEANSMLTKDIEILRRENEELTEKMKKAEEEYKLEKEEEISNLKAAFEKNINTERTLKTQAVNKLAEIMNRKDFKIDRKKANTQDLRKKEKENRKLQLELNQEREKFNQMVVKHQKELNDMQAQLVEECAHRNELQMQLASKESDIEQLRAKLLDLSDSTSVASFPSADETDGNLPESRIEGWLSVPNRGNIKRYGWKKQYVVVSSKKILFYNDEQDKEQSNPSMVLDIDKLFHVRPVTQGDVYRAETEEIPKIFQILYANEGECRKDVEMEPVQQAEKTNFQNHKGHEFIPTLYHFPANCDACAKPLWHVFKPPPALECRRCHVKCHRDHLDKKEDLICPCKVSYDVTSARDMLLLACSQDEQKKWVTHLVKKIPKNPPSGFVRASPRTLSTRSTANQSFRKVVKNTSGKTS

[29] = target: PIK3C2G (Homo sapiens, UniProt O75747); assay: Kinase selectivity screen; conditions: read-out: % Inhibition PIK3C2G
Sequence of PIK3C2G (O75747 whole entry, species assumed): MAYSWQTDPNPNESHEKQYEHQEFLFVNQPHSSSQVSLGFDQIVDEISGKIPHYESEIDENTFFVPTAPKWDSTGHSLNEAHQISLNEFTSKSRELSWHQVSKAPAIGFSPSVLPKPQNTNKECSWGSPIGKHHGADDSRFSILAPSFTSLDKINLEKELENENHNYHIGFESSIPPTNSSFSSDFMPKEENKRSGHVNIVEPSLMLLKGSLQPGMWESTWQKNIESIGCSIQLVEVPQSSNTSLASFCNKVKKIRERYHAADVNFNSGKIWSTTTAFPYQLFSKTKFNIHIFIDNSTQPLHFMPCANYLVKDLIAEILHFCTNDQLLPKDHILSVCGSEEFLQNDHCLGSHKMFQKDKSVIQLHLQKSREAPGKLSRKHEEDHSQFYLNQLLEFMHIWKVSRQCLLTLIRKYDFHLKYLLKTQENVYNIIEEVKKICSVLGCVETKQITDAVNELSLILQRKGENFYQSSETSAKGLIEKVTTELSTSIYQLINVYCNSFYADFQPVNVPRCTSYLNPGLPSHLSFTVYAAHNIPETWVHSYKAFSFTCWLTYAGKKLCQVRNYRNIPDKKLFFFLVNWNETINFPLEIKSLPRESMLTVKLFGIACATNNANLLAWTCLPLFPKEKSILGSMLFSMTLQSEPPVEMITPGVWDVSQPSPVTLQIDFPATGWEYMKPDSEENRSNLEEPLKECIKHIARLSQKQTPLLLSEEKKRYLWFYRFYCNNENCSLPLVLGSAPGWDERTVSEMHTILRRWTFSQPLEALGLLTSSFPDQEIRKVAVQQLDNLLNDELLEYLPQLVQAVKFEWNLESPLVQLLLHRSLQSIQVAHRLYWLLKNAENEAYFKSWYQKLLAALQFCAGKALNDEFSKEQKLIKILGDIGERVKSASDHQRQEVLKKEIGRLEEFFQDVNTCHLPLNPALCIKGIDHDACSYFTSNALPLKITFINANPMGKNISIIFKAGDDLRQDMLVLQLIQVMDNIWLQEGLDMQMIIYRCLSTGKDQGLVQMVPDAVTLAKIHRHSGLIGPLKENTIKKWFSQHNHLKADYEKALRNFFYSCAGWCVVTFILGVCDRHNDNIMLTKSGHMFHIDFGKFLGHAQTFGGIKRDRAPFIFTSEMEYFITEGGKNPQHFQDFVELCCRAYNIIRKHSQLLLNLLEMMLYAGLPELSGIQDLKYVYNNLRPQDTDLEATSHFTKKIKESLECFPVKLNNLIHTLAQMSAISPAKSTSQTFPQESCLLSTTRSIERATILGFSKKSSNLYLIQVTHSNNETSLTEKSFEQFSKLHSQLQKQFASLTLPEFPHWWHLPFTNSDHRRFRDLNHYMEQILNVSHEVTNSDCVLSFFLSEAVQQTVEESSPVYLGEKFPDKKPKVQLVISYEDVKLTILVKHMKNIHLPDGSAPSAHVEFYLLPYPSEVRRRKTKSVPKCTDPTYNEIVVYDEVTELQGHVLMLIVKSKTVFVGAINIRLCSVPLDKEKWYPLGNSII

[30] = target: NTRK1 (Homo sapiens, UniProt P04629); assay: Kinase selectivity screen; conditions: read-out: % Inhibition NTRK1
[31] = target: STK11 (Homo sapiens, UniProt Q15831); assay: Kinase selectivity screen; conditions: read-out: % Inhibition STK11
[32] = target: SGK1 (Homo sapiens, UniProt O00141); assay: Kinase selectivity screen; conditions: read-out: % Inhibition SGK1
[33] = target: MAPKAPK2 (Homo sapiens, UniProt P49137); assay: Kinase selectivity screen; conditions: read-out: % Inhibition MAPKAPK2
[34] = target: EGFR (Homo sapiens, UniProt P00533); assay: Kinase selectivity screen; conditions: read-out: % Inhibition EGFR

CC(C)Oc1cc(F)ccc1Nc1ncnc2cc(C(=O)NCCCN(C)C)n(C)c12 [Example 40, N-[3-(dimethylamino)propyl]-4-{[4-fluoro-2-(propan-2-yloxy)phenyl]amino}-5-methyl-5H-pyrrolo[3,2-d]pyrimidine-6-carboxamide]
inhibition at 1 µM [1]: 0% | inhibition at 1 µM [2]: 0% | inhibition at 1 µM [3]: 0% | inhibition at 1 µM [4]: 0% | inhibition at 1 µM [5]: 8% | inhibition at 1 µM [6]: 0% | inhibition at 1 µM [7]: 2% | inhibition at 1 µM [8]: 0% | inhibition at 1 µM [9]: 0% | IC50 [10]: 0.0501 µM | inhibition at 1 µM [11]: 0% | inhibition at 1 µM [12]: 0% | inhibition at 1 µM [13]: 5% | inhibition at 1 µM [14]: 2% | inhibition at 1 µM [15]: 0% | inhibition at 1 µM [16]: 0% | inhibition at 1 µM [17]: 0% | inhibition at 1 µM [18]: 0% | inhibition at 1 µM [19]: 0% | inhibition at 1 µM [20]: 0% | inhibition at 1 µM [21]: 0% | inhibition at 1 µM [22]: 0% | inhibition at 1 µM [23]: 8% | inhibition at 1 µM [24]: 0% | inhibition at 1 µM [25]: 0% | inhibition at 1 µM [26]: 0% | inhibition at 1 µM [27]: 0% | inhibition at 1 µM [28]: 0% | inhibition at 1 µM [29]: 4% | inhibition at 1 µM [30]: 0% | inhibition at 1 µM [31]: 0% | inhibition at 1 µM [32]: 0% | inhibition at 1 µM [33]: 0% | inhibition at 1 µM [34]: 0%
